# Experimental data published in PubChem BioAssay AID2060492 (Molecular Pharmacology Branch, DTP, NCI, 2025).
# Test system: 695427-040-R-J1-PDC complex spheroids, viability percent T/C
# Assay: Anticancer human tumor 695427-040-R-J1-PDC patient-derived colon adenocarcinoma cell line growth inhibition [GQUAD]
# Conditions: for IC50: curve of first compound; for viability, T/C: stronger effect = lower value
# In short: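 Viability of tumor cells grown as complex spheroids with endothelial and stromal cells, exposed to drug combinations. Top concentration at or near clinical Cmax (else 10 microM), diluted in half-log increments.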
# [1] = second compound 0.0316 µM, first compound 0.0316 µM
# [2] = second compound 0.0316 µM, first compound 0.316 µM
# [3] = second compound 0.1 µM, first compound 0.0316 µM
# [4] = second compound 0.1 µM, first compound 0.316 µM
# [5] = second compound 0.316 µM, first compound 0.0316 µM
# [6] = second compound 0.316 µM, first compound 0.316 µM
# [7] = second compound 1 µM, first compound 0.0316 µM
# [8] = second compound 1 µM, first compound 0.316 µM
# [9] = second compound 3.16 µM, first compound 0.0316 µM
# [10] = second compound 3.16 µM, first compound 0.316 µM
# [11] = second compound 10 µM, first compound 0.0316 µM
# [12] = second compound 10 µM, first compound 0.316 µM
# 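Further: spheroids exposed to compounds for seven days before readout.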
compound,measurement,setting,value
COc1cccc2c1C(=O)c1c(O)c3c(c(O)c1C2=O)CC(O)(C(=O)CO)CC3OC1CC(N)C(O)C(C)O1 (centres undefined) + CN(C)c1ccc(Nc2c3ccc(NC(=O)CCN4CCCC4)cc3nc3cc(NC(=O)CCN4CCCC4)ccc23)cc1,IC50,second compound 0.0316 µM,9.64 µM
same,IC50,second compound 0.1 µM,> 10 µM
same,IC50,second compound 0.316 µM,> 10 µM
same,IC50,second compound 1 µM,9.98 µM
same,IC50,second compound 3.16 µM,8.08 µM
same,IC50,second compound 10 µM,> 10 µM
same,"viability, T/C",[1],97%
same,"viability, T/C","second compound 0.0316 µM, first compound 0.1 µM",86.8%
same,"viability, T/C",[2],90.3%
same,"viability, T/C","second compound 0.0316 µM, first compound 1 µM",82.3%
same,"viability, T/C","second compound 0.0316 µM, first compound 3.16 µM",63.1%
same,"viability, T/C","second compound 0.0316 µM, first compound 10 µM",49.7%
same,"viability, T/C",[3],102%
same,"viability, T/C","second compound 0.1 µM, first compound 0.1 µM",92%
same,"viability, T/C",[4],85.9%
same,"viability, T/C","second compound 0.1 µM, first compound 1 µM",81.3%
same,"viability, T/C","second compound 0.1 µM, first compound 3.16 µM",66.6%
same,"viability, T/C","second compound 0.1 µM, first compound 10 µM",53.2%
same,"viability, T/C",[5],93.2%
same,"viability, T/C","second compound 0.316 µM, first compound 0.1 µM",89.4%
same,"viability, T/C",[6],90.2%
same,"viability, T/C","second compound 0.316 µM, first compound 1 µM",80.5%
same,"viability, T/C","second compound 0.316 µM, first compound 3.16 µM",63.8%
same,"viability, T/C","second compound 0.316 µM, first compound 10 µM",50.1%
same,"viability, T/C",[7],90.6%
same,"viability, T/C","second compound 1 µM, first compound 0.1 µM",87.2%
same,"viability, T/C",[8],81.5%
same,"viability, T/C","second compound 1 µM, first compound 1 µM",78.3%
same,"viability, T/C","second compound 1 µM, first compound 3.16 µM",69.3%
same,"viability, T/C","second compound 1 µM, first compound 10 µM",49.4%
same,"viability, T/C",[9],97.1%
same,"viability, T/C","second compound 3.16 µM, first compound 0.1 µM",87.2%
same,"viability, T/C",[10],87.6%
same,"viability, T/C","second compound 3.16 µM, first compound 1 µM",77.9%
same,"viability, T/C","second compound 3.16 µM, first compound 3.16 µM",65.5%
same,"viability, T/C","second compound 3.16 µM, first compound 10 µM",46%
same,"viability, T/C",[11],89.2%
same,"viability, T/C","second compound 10 µM, first compound 0.1 µM",84.6%
same,"viability, T/C",[12],81.8%
same,"viability, T/C","second compound 10 µM, first compound 1 µM",76.1%
same,"viability, T/C","second compound 10 µM, first compound 3.16 µM",68.2%
same,"viability, T/C","second compound 10 µM, first compound 10 µM",52.3%
Cn1ncnc1[C@H]1c2n[nH]c(=O)c3cc(F)cc(c23)N[C@@H]1c1ccc(F)cc1 + CN(C)c1ccc(Nc2c3ccc(NC(=O)CCN4CCCC4)cc3nc3cc(NC(=O)CCN4CCCC4)ccc23)cc1,IC50,second compound 0.0316 µM,> 0.316 µM
same,IC50,second compound 0.1 µM,> 0.316 µM
same,IC50,second compound 0.316 µM,> 0.316 µM
same,IC50,second compound 1 µM,> 0.316 µM
same,IC50,second compound 3.16 µM,> 0.316 µM
same,IC50,second compound 10 µM,> 0.316 µM
same,"viability, T/C","second compound 0.0316 µM, first compound 0.000999 µM",102%
same,"viability, T/C","second compound 0.0316 µM, first compound 0.00316 µM",92.9%
same,"viability, T/C","second compound 0.0316 µM, first compound 0.00999 µM",101%
same,"viability, T/C",[1],103%
same,"viability, T/C","second compound 0.0316 µM, first compound 0.0999 µM",100%
same,"viability, T/C",[2],93%
same,"viability, T/C","second compound 0.1 µM, first compound 0.000999 µM",112%
same,"viability, T/C","second compound 0.1 µM, first compound 0.00316 µM",89.1%
same,"viability, T/C","second compound 0.1 µM, first compound 0.00999 µM",95.7%
same,"viability, T/C",[3],92.8%
same,"viability, T/C","second compound 0.1 µM, first compound 0.0999 µM",93.5%
same,"viability, T/C",[4],97.5%
same,"viability, T/C","second compound 0.316 µM, first compound 0.000999 µM",88.2%
same,"viability, T/C","second compound 0.316 µM, first compound 0.00316 µM",95.8%
same,"viability, T/C","second compound 0.316 µM, first compound 0.00999 µM",99.5%
same,"viability, T/C",[5],96.6%
same,"viability, T/C","second compound 0.316 µM, first compound 0.0999 µM",90.9%
same,"viability, T/C",[6],91.2%
same,"viability, T/C","second compound 1 µM, first compound 0.000999 µM",105%
same,"viability, T/C","second compound 1 µM, first compound 0.00316 µM",97.8%
same,"viability, T/C","second compound 1 µM, first compound 0.00999 µM",91.5%
same,"viability, T/C",[7],104%
same,"viability, T/C","second compound 1 µM, first compound 0.0999 µM",101%
same,"viability, T/C",[8],87.3%
same,"viability, T/C","second compound 3.16 µM, first compound 0.000999 µM",99.6%
same,"viability, T/C","second compound 3.16 µM, first compound 0.00316 µM",94.7%
same,"viability, T/C","second compound 3.16 µM, first compound 0.00999 µM",88.8%
same,"viability, T/C",[9],94.2%
same,"viability, T/C","second compound 3.16 µM, first compound 0.0999 µM",95%
same,"viability, T/C",[10],93.4%
same,"viability, T/C","second compound 10 µM, first compound 0.000999 µM",93.3%
same,"viability, T/C","second compound 10 µM, first compound 0.00316 µM",89.8%
same,"viability, T/C","second compound 10 µM, first compound 0.00999 µM",77.3%
same,"viability, T/C",[11],86.2%
same,"viability, T/C","second compound 10 µM, first compound 0.0999 µM",96.4%
same,"viability, T/C",[12],90.1%
